Structures can show the parent of a compound that is named as a salt. Where two headings read alike, the source gives them in different places.
Legend:
[1] = target: T1, human TRPV1 (Homo sapiens, UniProt Q8NER1); test: Block of capsaicin-induced Ca2+ influx, human assay (hTRPV1/HEK293, FLIPR); format: cell-based; details: HEK293 cells transfected with human TRPV1; 150 nM capsaicin challenge; mean; > value = solubility limit in assay medium
T1 construct: expressed in transfected cells; host or cells: HEK293

[2] = target: T2, rat TRPV1 (Rattus norvegicus, UniProt O35433); test: Block of capsaicin-induced Ca2+ influx, rat assay (rTRPV1/HEK293, FLIPR); format: cell-based
T2 construct: expressed in transfected cells; host or cells: HEK293
Procedure, shortened: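 HEK293 cells expressing rat TRPV1, Fluo-3 loaded, preincubated 30 min with compound in 20 μM Ca2+ buffer (serial three-fold dilutions, usually from 10 μM, duplicate). Capsaicin-evoked fluorescence change over 100 s measured on FLIPR; IC50 by non-linear regression, averaged across runs.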

[3] = HEK293 cells transfected with rat TRPV1, capsaicin challenge, mean, > value = solubility limit in assay medium, read-out: Rat IC50

T2 sequence (O35433 whole entry): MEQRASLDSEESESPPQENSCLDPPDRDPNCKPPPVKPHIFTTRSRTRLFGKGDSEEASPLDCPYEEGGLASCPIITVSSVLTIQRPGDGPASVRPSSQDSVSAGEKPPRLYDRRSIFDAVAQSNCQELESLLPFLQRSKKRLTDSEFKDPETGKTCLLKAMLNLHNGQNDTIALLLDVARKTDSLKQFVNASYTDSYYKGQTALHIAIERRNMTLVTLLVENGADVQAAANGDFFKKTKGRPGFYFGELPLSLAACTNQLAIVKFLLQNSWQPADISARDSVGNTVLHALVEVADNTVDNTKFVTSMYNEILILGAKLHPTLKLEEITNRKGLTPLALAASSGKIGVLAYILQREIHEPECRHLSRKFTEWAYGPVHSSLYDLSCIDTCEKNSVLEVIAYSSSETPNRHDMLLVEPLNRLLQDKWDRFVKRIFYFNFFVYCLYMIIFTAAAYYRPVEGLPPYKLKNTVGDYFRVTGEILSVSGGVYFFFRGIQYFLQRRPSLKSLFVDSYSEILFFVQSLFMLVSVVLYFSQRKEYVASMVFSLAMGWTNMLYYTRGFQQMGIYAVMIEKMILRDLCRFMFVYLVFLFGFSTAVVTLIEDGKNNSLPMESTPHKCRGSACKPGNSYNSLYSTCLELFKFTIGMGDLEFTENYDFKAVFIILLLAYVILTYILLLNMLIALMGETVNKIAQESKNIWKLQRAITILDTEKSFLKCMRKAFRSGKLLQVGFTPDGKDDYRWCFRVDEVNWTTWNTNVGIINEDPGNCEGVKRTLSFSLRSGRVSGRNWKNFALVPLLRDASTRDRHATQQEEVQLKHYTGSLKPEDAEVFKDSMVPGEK
T1 sequence (Q8NER1 whole entry): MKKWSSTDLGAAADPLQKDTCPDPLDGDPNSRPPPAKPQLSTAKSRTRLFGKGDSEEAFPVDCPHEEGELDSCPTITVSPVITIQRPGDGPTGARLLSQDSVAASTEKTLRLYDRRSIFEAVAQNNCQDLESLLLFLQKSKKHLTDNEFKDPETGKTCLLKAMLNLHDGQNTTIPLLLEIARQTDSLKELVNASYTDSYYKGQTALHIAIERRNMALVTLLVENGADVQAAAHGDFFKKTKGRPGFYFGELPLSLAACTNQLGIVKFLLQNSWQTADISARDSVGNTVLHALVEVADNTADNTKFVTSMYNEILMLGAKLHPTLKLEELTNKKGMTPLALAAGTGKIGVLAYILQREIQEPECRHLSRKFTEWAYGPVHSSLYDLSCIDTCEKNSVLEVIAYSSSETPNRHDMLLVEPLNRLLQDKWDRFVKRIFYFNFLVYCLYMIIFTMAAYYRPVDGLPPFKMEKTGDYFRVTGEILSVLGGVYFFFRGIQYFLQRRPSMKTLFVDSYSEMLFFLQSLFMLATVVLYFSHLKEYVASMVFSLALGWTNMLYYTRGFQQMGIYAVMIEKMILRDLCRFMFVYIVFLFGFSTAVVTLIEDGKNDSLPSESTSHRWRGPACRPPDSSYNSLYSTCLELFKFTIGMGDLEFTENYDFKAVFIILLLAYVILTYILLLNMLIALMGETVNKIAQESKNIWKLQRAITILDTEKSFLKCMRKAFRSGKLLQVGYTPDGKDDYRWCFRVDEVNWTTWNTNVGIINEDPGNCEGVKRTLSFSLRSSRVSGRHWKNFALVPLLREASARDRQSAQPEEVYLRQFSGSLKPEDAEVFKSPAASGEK

| Structure (SMILES) | IC50 [1] [nM] | IC50 [2, 3] [nM] | IC50 [2] [nM] |
| --- | --- | --- | --- |
| CC(C)[Si](Sc1ccccc1Cc1nc2c(Nc3ccc(C(F)(F)F)cc3)ncnc2s1)(C(C)C)C(C)C [Example 104, (4-Trifluoromethyl-phenyl)-[2-(2-triisopropylsilanylsulfanyl-benzyl)-thiazolo[5,4-d]pyrimidin-7-yl]-amine] | 125 |  | 69 |
| FC(F)(F)c1ccc(Nc2ncnc3sc(Cc4ccccc4-c4ccccc4)nc23)cc1 [Example 105, (2-Biphenyl-2-ylmethylthiazolo[5,4-d]pyrimidin-7-yl)-(4-trifluoromethylphenyl)-amine] | 1640 | 1230 |  |
| Oc1ccccc1-c1ccccc1Cc1nc2c(Nc3ccc(C(F)(F)F)cc3)ncnc2s1 [Example 106, 2′-[7-(4-Trifluoromethylphenylamino)-thiazolo[5,4-d]pyrimidin-2-ylmethyl]-biphenyl-2-ol] | 1010 | 343 |  |
| NC(=O)c1ccc(-c2ccccc2Cc2nc3c(Nc4ccc(C(F)(F)F)cc4)ncnc3s2)cc1 [Example 107, 2′-[7-(4-Trifluoromethylphenylamino)-thiazolo[5,4-d]pyrimidin-2-ylmethyl]-biphenyl-4-carboxylic acid amide] | 6960 | 1530 |  |

The next lines start with results.

| IC50 [1] [nM] | IC50 [2, 3] [nM] | Structure (SMILES) | IC50 [2] [nM] |
| --- | --- | --- | --- |
| 126 | 62 | N#Cc1ccccc1Cc1nc2c(Nc3ccc(C(F)(F)F)cc3)ncnc2s1 [Example 100, 2-[7-(4-Trifluoromethyl-phenylamino)-thiazolo[5,4-d]pyrimidin-2-ylmethyl]-benzonitrile] |  |
| 207 | 34 | COc1nc(Nc2ccc(C(F)(F)F)cc2)c2nc(Cc3c(Cl)cccc3Cl)sc2n1 [Example 101, [2-(2,6-Dichloro-benzyl)-5-methoxy-thiazolo[5,4-d]pyrimidin-7-yl]-(4-trifluoromethyl-phenyl)-amine] |  |
| 188 | 74 | CC(C)Oc1nc(Nc2ccc(C(F)(F)F)cc2)c2nc(Cc3c(Cl)cccc3Cl)sc2n1 [Example 102, [2-(2,6-Dichloro-benzyl)-5-isopropoxy-thiazolo[5,4-d]pyrimidin-7-yl]-(4-trifluoromethyl-phenyl)-amine] |  |
| 716 | 116 | FC(F)(F)c1ccc(Nc2ncnc3[nH]c(Cc4c(Cl)cccc4Cl)nc23)cc1 [Example 109, [8-(2,6-Dichloro-benzyl)-9H-purin-6-yl]-(4-trifluoromethyl-phenyl)-amine trifluoroacetic acid salt] |  |
